US7964614B2, “Systemic inflammatory markers as diagnostic tools in the prevention of atherosclerotic diseases and as tools to aid in the selection of agents to be used for the prevention and treatment of atherosclerotic disease” (The Brigham and Women's Hospital, Inc., priority 1997, dated 2011)

How the values were obtained:
[1] = system: apparently healthy men (US male physicians); conditions: whole trial population, 325 mg aspirin on alternate days vs placebo (reference 1); cited from earlier work
[2] = system: apparently healthy men (US male physicians); assay: Physicians' Health Study: randomized, double-blind, placebo controlled trial of aspirin in primary prevention; risk of first myocardial infarction, stratified by baseline C-reactive protein quartile; assay type: in vivo, human; conditions: 325 mg aspirin on alternate days vs placebo, events prior to Jan. 25, 1988
Protocol: The Physicians' Health Study is a randomized, double-blind, placebo controlled, 2×2 factorial trial of aspirin and beta-carotene in the primary prevention of cardiovascular disease and cancer. A total of 22,071 US male physicians aged 40 to 84 years in 1982 with no history of myocardial infarction, stroke, transient ischemic attack, or cancer were assigned to one of four treatment groups: 325 mg aspirin on alternate days (Bufferin, provided by Bristol-Myers), 50 mg of beta-carotene on alternate days (Lurotin, provided by BASF Corporation), both, or neither. The aspirin component of the PHS was terminated early on Jan. 25, 1988 primarily due to a statistically extreme 44 percent reduction in risk of first infarction in the aspirin group.^1 The beta-carotene component continued to scheduled termination on Dec. 31, 1995.^2 Hospital records (and for fatal events, death certificates and necropsy reports) were requested for all reported cases of myocardial infarction, stroke, and venous thrombosis. Records were reviewed by a committee of physicians using standardized criteria to confirm or refute reported events. Endpoints reviewers were blinded to treatment assignment. Reported myocardial infarction was confirmed if the event met World Health Organization criteria of symptoms plus either elevated enzymes or characteristic electrocardiographic changes. Silent myocardial infarctions were not included since they could not be dated accurately. Deaths due to coronary disease were confirmed based on autopsy reports, symptoms, circumstances of death, and prior history of coronary disease. Reported stroke was confirmed based on medical records showing neurological deficit of sudden or rapid onset persisting for more than 24 hours or until death. Strokes were classified as ischemic or hemorrhagic. Computed tomography was available for more than 95 percent of confirmed strokes. Reported deep venous thrombosis was confirmed by documentation of a positive venography study or a positive ultrasound study; deep venous thrombosis documented only by impedance plethysmography or Doppler examination without ultrasound were not confirmed. […] Using these methods, we evaluated 543 cases and 543 controls in this prospective nested case-control design. Means or proportions for baseline risk factors were calculated for cases and controls. […] Because C-reactive protein levels are skewed, median levels were computed and the significance of any differences in median values between cases and controls assessed using Wilcoxon's Rank Sum Test. […] Similar models were employed to adjust for measured baseline levels of total and HDL cholesterol, triglyceride, lipoprotein(a), tPA antigen, fibrinogen, D-dimer, and homocysteine. […]

## CC(=O)Oc1ccccc1C(=O)O [aspirin]
[1]
  reduction in risk of first infarction in the aspirin group: 44%
[2]; first (lowest) quartile of baseline C-reactive protein
  reduction in risk of myocardial infarction associated with aspirin use: 13.9%
[2]; fourth (highest) quartile of baseline C-reactive protein
  reduction in risk of myocardial infarction associated with aspirin use: 55.7%
[2]; second quartile of baseline C-reactive protein
  reduction in risk of myocardial infarction associated with aspirin use: 33.4%
[2]; third quartile of baseline C-reactive protein
  reduction in risk of myocardial infarction associated with aspirin use: 46.3%
